Data on 13 molecules can be found in patent US20250325491A1, “POLYVALENT MOLECULE BASED LIPID NANOPARTICLES FOR NUCLEIC ACID DELIVERY” (Bio-TRIP B.V., priority 2022, published 2025).

Like-named read-outs stand apart in the source and are kept apart here.

Data set [1] can be described thus: Solubility of the polyvalent molecules in ethanol, iso-propanol and tri-caprylin. The protocol:
The solubility can be checked by stirring about 20 mg of the polyvalent molecule in 1 gram of tricaprylin, ethanol or iso-propanol, and assessing whether all material spontaneously dissolves to create a clear/transparent solution (with a concentration of about 2 w/w %). The test can be done at about 20 degrees centigrade (room temperature) or at about 37 degrees centigrade.
Spontaneous dissolution upon stirring at room temperature giving a clear solution is a mark for solubility.

A short description of data set [2]: Dynamic light scattering (DLS) of nanoparticles. In kind it is physicochemical. To be noted: siRNA-aNPs containing the polyvalent material (Table S3); SD over individual repeats. The protocol:
The hydrodynamic diameter of the formulated particles was determined by a number-weighted mean diameter provided by dynamic light scattering (DLS) using a Zetasizer Nano ZS in combination with a Malvern Zetasizer NanoSampler (Malvern Instruments, Worcestshire, UK). The size dispersity was measured as the poly dispersity index (PDI). For the DLS measurements, 100 μl of the formulated nanoparticle was diluted into 700 μl of PBS (137 mM NaCl, 2.7 mM KCl, 10 mM Na2HPO4 and 1.8 mM KH2PO4) and equilibrated at room temperature before the analysis. Each sample was measured 5 times, 10 runs of each 10 seconds, at wavelength 633 nm, without fixing the attenuator and measurement position.

Data set [3] is described as follows: Cryo-TEM of nanoparticles. Format: physicochemical. As for the experimental part: Size and shape of the nanoparticles was also assessed by cryo-transmission electron microscopy (cryo-TEM). The surface of 200-mesh lacey carbon supported copper grids (Electron Microscopy Sciences) was plasma charged for 40 seconds using a carbon coater (Cressington 208). Subsequently, 3 μl of nanoparticle sample (˜1 mg protein/ml) was pipetted on a grid and vitrified into a thin film by plunge vitrification in liquid ethane. This step was performed by using an automated robot (FEI Vitrobot Mark IV). Cryo-TEM imaging was acquired on the cryo-transmission electron microscope TITAN (Thermo Fisher), equipped with a field emission gun (FEG), a post-column Gatan imaging filter (model 2002) and a post-GIF 2 k×2 k Gatan CCD camera (model 794). The imaging was performed at 300 kV acceleration voltage in bright-field TEM mode with zero-loss energy filtering at 24,000× magnification (dose rate of 11.8 e−/Å2·s), and 1s acquisition time. Pictures and results are reported in Table S6, FIG. 7, FIG. 8, FIG. 9 (A), FIG. 15.

In data set [4] the test system is RAW 264.7 cell line. Briefly: MTS cytotoxicity assay. In kind it is cell-based. The conditions noted are these: RAW 264.7 cell line exposed to siRNA-aNPs with increasing amounts of the polyvalent molecule (FIG. 10). As for the experimental part:
MTS assays were carried out on multiple apolipoprotein nanoparticles (aNPs) of the invention. These assays were executed in line with protocols that are known in the art.

A short description of data set [5]: Stability of nanoparticle formulations (phase separation on dialysis or storage). Set-up: key to phase separation of siRNA-aNPs (Table S4): *: Indicates phase separation after two days of storage in the refrigerator at 4° C; key to phase separation of siRNA-aNPs (footnote mark, Table S5): *: Indicates phase separation after two days storage in the fridge at 4° C.; **: Indicates phase separation after overnight dialysis. The conditions noted are these: siRNA-aNPs containing the polyvalent material; for phase separation of siRNA-aNPs (footnote mark, Table S5): overnight dialysis or storage at 4° C; for phase separation of siRNA-aNPs (Table S4): storage in the refrigerator at 4° C. In kind it is physicochemical.

[6] abbreviates: 20 mg material per gram of solvent, spontaneous dissolution upon stirring giving a clear solution.

For `CCCCCCCCCCC(O)CN(CCCN(CCCCN(CCCN(CC(O)CCCCCCCCCC)CC(O)CCCCCCCCCC)CCCN(CC(O)CCCCCCCCCC)CC(O)CCCCCCCCCC)CCCN(CC(O)CCCCCCCCCC)CC(O)CCCCCCCCCC)CC(O)CCCCCCCCCC` (mixture of isomers) [Example G2, G1-EPX-nC10-8], the “solubility in ethanol, iso-propanol and tri-caprylin” value (“solubility in ethanol” below) in data set [1] (setting [6]) is “soluble in all three solvents at room temperature”. Besides, in data set [2], the “DLS Hydrodynamic diameter (number mean)” value stood at 55 ± 4 nm and the “DLS PDI” value is on record as 0.10 ± 0.01.
In the same order, the values of `CCCCCCCCC(O)CN(CCCN(CC(O)CCCCCCCC)CC(O)CCCCCCCC)CCCN(CC(O)CCCCCCCC)CC(O)CCCCCCCC` (mixture of isomers) [Example G7, Bis(3-aminopropyl)amine-EPX-C8-5] are “soluble in all three solvents at room temperature”, 54 ± 1 nm and 0.2 ± 0.06.
Consider `CCCCCCCCC(O)CN(CCN(CC(O)CCCCCCCC)CC(O)CCCCCCCC)CCN(CC(O)CCCCCCCC)CC(O)CCCCCCCC` (mixture of isomers) [Example G8, Bis(2-amino-ethyl)amine-EPX-C8-5], for which the “solubility in ethanol” value in data set [1] (setting [6]) is on record as “soluble in all three solvents at room temperature”. In data set [2], the “DLS Hydrodynamic diameter (number mean)” value stood at 84 ± 45 nm and the “DLS PDI” value amounted to 0.2 ± 0.05.
For the molecule `CCCCCCCCC(O)CN(CCCN(C)CCCN(CC(O)CCCCCCCC)CC(O)CCCCCCCC)CC(O)CCCCCCCC` (mixture of isomers) [Example G9, Bis(3-aminopropyl)methylamine-EPX-C8-4], in data set [2], the “DLS Hydrodynamic diameter (number mean)” value turned out to be 73 ± 10 nm and the “DLS PDI” value was found to be 0.18 ± 0.08.
The like results for `CCCCCCCCCCCCCCOC(=O)CCN(CCCN(CCCCN(CCCN(CCC(=O)OCCCCCCCCCCCCCC)CCC(=O)OCCCCCCCCCCCCCC)CCCN(CCC(=O)OCCCCCCCCCCCCCC)CCC(=O)OCCCCCCCCCCCCCC)CCCN(CCC(=O)OCCCCCCCCCCCCCC)CCC(=O)OCCCCCCCCCCCCCC)CCC(=O)OCCCCCCCCCCCCCC` [Example A3, G1-ACR-nC14-8] were, in that order, 55 ± 0.7 nm and 0.14 ± 0.01.
`CC(C)CCCCCCCOC(=O)CCN(CCCN(CCCCN(CCCN(CCC(=O)OCCCCCCCC(C)C)CCC(=O)OCCCCCCCC(C)C)CCCN(CCC(=O)OCCCCCCCC(C)C)CCC(=O)OCCCCCCCC(C)C)CCCN(CCC(=O)OCCCCCCCC(C)C)CCC(=O)OCCCCCCCC(C)C)CCC(=O)OCCCCCCCC(C)C` [Example A6, G1-ACR-isoC10-8]: in data set [3] (siRNA-aNPs containing A6 (FIG. 9)), the “diameter of siRNA-aNPs visible in cryo-TEM and immuno-gold staining TEM images” value was “about 50 nm”. In data set [3] (siRNA-aNPs containing the polyvalent material, SD over n individual particles), the “Cryo-TEM Diameter” value is given as 53 ± 11 nm. Further, the “Cryo-TEM PDI” value in data set [3] (siRNA-aNPs containing the polyvalent material, n individual particles) is 0.02. Further, in data set [2], the “DLS Hydrodynamic diameter (number mean)” value is 48 ± 1 nm and the “DLS PDI” value is listed as 0.14 ± 0.02. Also, in data set [4], the “cytotoxicity (MTS assay)” value is reported as “do not exercise cytotoxicity”.
`CCCCCCCCOC(=O)CCN(CCCN(CCC(=O)OCCCCCCCC)CCC(=O)OCCCCCCCC)CCCN(CCC(=O)OCCCCCCCC)CCC(=O)OCCCCCCCC` [Example A9, Bis(3-Aminopropyl)Amine-ACR-C8-5]: the “solubility in ethanol” value in data set [1] (setting [6]) is reported as “soluble in all three solvents at room temperature”.
On to `CCCCCCCCOC(=O)CCN(CCC(=O)OCCCCCCCC)CCN(CCC(=O)OCCCCCCCC)CCN(CCC(=O)OCCCCCCCC)CCC(=O)OCCCCCCCC` [Example A10, Bis(2-aminoethyl)amine-ACR-C8-5], for which, in data set [1], the “solubility in ethanol” value was “soluble in all three solvents at room temperature”.
In the case of `CCCCCCCCOC(=O)CCN(CCCN(C)CCCN(CCC(=O)OCCCCCCCC)CCC(=O)OCCCCCCCC)CCC(=O)OCCCCCCCC` [Example A11, Bis-(3-aminopropyl)methylamine-ACR-C8-4], the “solubility in ethanol” value in data set [1] (setting [6]) is “soluble in all three solvents at room temperature”. In data set [2], the “DLS Hydrodynamic diameter (number mean)” value amounted to 136 ± 45 nm and the “DLS PDI” value is recorded as 0.14 ± 0.04.
On to `CCCCCCCCCCCCCCOC(=O)CCN(CCCN(CCCCN(CCCN(CCC(=O)OCCCCCCCCCCCCCC)C(C)=O)CCCN(CCC(=O)OCCCCCCCCCCCCCC)C(C)=O)CCCN(CCC(=O)OCCCCCCCCCCCCCC)C(C)=O)C(C)=O` [Example B2, G1-ACR-nC14-4/Ac-4], for which the “solubility in ethanol” value in data set [1] (setting [6]) is “soluble in all three solvents at room temperature”. Moreover, in data set [2], the “DLS Hydrodynamic diameter (number mean)” value turned out to be 67 nm and the “DLS PDI” value is 0.09. In data set [5], the “phase separation of siRNA-aNPs (footnote mark, Table S5)” value is “B2 *” and the “phase separation of siRNA-aNPs (Table S4)” value was “B2 *”.
As for `CCCCCCCCCCCCCCOC(=O)CCN(C)CCCN(CCCCN(CCCN(C)CCC(=O)OCCCCCCCCCCCCCC)CCCN(C)CCC(=O)OCCCCCCCCCCCCCC)CCCN(C)CCC(=O)OCCCCCCCCCCCCCC` [Example H1, G1-ACR-nC14-4/CH3-4], in data set [2], the “DLS Hydrodynamic diameter (number mean)” value was 66 ± 7 nm and the “DLS PDI” value is 0.45 ± 0.43. Besides, in data set [5], the “phase separation of siRNA-aNPs (footnote mark, Table S5)” value was “H1 *” and the “phase separation of siRNA-aNPs (Table S4)” value is “H1 *”.
Take `CCCCCCCCC=CCCCCCCCC(=O)NCCCCC(N)C(=O)NCCCN(CCCCN(CCCNC(=O)C(N)CCCCNC(=O)CCCCCCCC=CCCCCCCCC)CCCNC(=O)C(N)CCCCNC(=O)CCCCCCCC=CCCCCCCCC)CCCNC(=O)C(N)CCCCNC(=O)CCCCCCCC=CCCCCCCCC` (centres unmarked) [Example J10, G1-Lysine-N^6-Oleate-4]: the “solubility in ethanol” value in data set [1] (setting [6]) is “soluble in all three solvents at room temperature”.
Same read-out and setting: to `CCCCCCCCC=CCCCCCCCC(=O)NC(CCCNC(=N)N)C(=O)NCCCN(CCCCN(CCCNC(=O)C(CCCNC(=N)N)NC(=O)CCCCCCCC=CCCCCCCCC)CCCNC(=O)C(CCCNC(=N)N)NC(=O)CCCCCCCC=CCCCCCCCC)CCCNC(=O)C(CCCNC(=N)N)NC(=O)CCCCCCCC=CCCCCCCCC` (centres unmarked) [Example J11, G1-Arginine-Oleate-4] belongs “soluble in all three solvents at room temperature”.
